We go through 22 molecules from patent publication US11945787B2, “Substituted imidazoles for preventing and/or treating cell or tissue necrosis” (Ela Pharma Ltd, priority 2015, dated 2024).

One assay has as its system elastase-like activity. The experiment in a line: Elastase-like activity in lysates of KCN-treated U-937 cells (MAAPV substrate). Type of assay: biochemical, human. The conditions noted are these: lysates after 10 mM KCN 30 min; data not shown.
The subject of the next assay is PC12 cells. The experiment in a line: KCN-induced necrosis of PC12 cells, LDH release. Type of assay: cell-based, rat. The conditions noted are these: for % protection at indicated concentration 0.1 nM / % protection at indicated concentration 1 nM / % protection at indicated concentration 10 nM / % protection at indicated concentration 100 nM / % protection at indicated concentration 1 μM / protection of cells at 10 μM: KCN-induced necrosis (Table 2); for inhibition at 0.0001 µM / inhibition at 0.001 µM / inhibition at 0.01 µM / inhibition at 0.1 µM / inhibition at 1 µM: Rattus norvegicus, PC-12, 5 h, KCN, PC12, LDH release (Table 5); for % protection at indicated concentration 0.1 nM / inhibition at 0.0001 µM: 0.1 nM; for inhibition at 0.0001 µM: read-out: % protection at 0.1 nM; for % protection at indicated concentration 1 nM / inhibition at 0.001 µM: 1 nM; for inhibition at 0.001 µM: read-out: % protection at 1 nM; for % protection at indicated concentration 10 nM / inhibition at 0.01 µM: 10 nM; for inhibition at 0.01 µM: read-out: % protection At 10 nM; for inhibition at 0.1 µM: read-out: % protection at 0.1 μM; for inhibition at 1 µM: read-out: % protection at 1 μM. Here is the method: The rat pheochromocytoma PC12 cell line was propagated in DMEM medium (Beit Haemek, Israel), supplemented with 5% heat-inactivated calf serum, 10% heat-inactivated horse serum, 2 mM L-glutamine, 100 U/ml penicillin and 100 μg/ml streptomycin. PC12 cells in logarithmic phase were seeded at a concentration of 1.2×10^5/well in 96-well plates and incubated overnight.
Thereafter, the cells were washed twice and maintained in RPMI-1640 (U-937cells) and DMEM (PC-12 cells) glucose-free medium, supplemented with 2 mM pyruvate and 10% dialyzed FCS for one hour. Then cells were treated with or without KCN (Merck, Germany) at the indicated concentrations for 7 hours (U-937 cells), or for 5 hours (PC12 cells).
Elastase inhibitors II (MeOSuc-AAPA-CMK) and elastase inhibitor III (MeOSuc-AAPV-CMK) were purchased from Calbiochem-Novabiochem, USA. Compound Gly-Phe diazomethylketone was purchased from MP Biomedicals, USA. All the compounds disclosed in Table 1 hereinabove were purchased from ChemDiv, San Diego, CA. The compounds were dissolved in DMSO and were administered 30 min before addition of the cell death inducer. The final concentration of DMSO, added to all samples, was 0.1%, which had no effect by itself siRNA and cell transfection
The amount of LDH released from lysed cells is a sensitive measure of cell death. Necrotic cell death was measured in 96-well plates using Promega CytoTox 96 LDH assay kit. LDH content from the cells lysed in 0.1% Triton X-100 for 10 min was used as an index of total LDH. The LDH released in culture medium was used as an index of necrotic cell death and the percentage from total LDH was calculated. The protection by the inhibitor was calculated based on comparing percentage of LDH release in the presence and in the absence of the inhibitor. The inhibitors were also added to totals, blanks and controls. Absorbance at 490 nm was measured by ELISA reader (BioTec).
These compounds were tested for their ability to inhibit necrosis induced by KCN in PC12 cells. The necrotic mode of cell death in this system was validated as previously described. PC12 cells were challenged with KCN as described above. The protective results of the compounds against KCN-induced necrosis assessed using LDH release method are shown below in Table 5. The IC50 values of these inhibitors is in the range of tens to single nanomolar.
A general note: LDH in the medium is a marker of cell lysis.

With `CCOC(=O)[C@H]1O[C@@H]1C(=O)N[C@@H](CC(C)C)C(=O)NCCC(C)C` [E-64d], the “effect on elastase-like proteolytic activity” value with elastase-like activity is recorded as “no effect”.

For the molecule `Cc1ccnc(Nc2nc(-c3cc(C)c(C)cc3C)cs2)c1` [M008-0111, N-(4-methylpyridin-2-yl)-4-(2,4,5-trimethylphenyl)thiazol-2-amine], in the assay on PC12 cells, the “% protection at indicated concentration 0.1 nM” value is reported as 29%, the “% protection at indicated concentration 1 nM” value stood at 36%, the “% protection at indicated concentration 10 nM” value came to 38% and the “% protection at indicated concentration 100 nM” value is recorded as 46%. Further, in the assay with PC12 cells, the “% protection at indicated concentration 1 μM” value is listed as 90%, the inhibition at 0.0001 µM worked out at 29%, the inhibition at 0.001 µM was found to be 36% and the inhibition at 0.01 µM amounted to 38%. In the assay on PC12 cells, the inhibition at 0.1 µM is 46% and the inhibition at 1 µM stood at 90%.

Take `O=C(c1ccco1)N1CCN=C1N1CCCC1` [M059-0032, furan-2-yl(2-(pyrrolidin-1-yl)-4,5-dihydro-1H-imidazol-1-yl)methanone]: in the assay with PC12 cells, the inhibition at 0.0001 µM stood at 7%, the inhibition at 0.001 µM worked out at 25%, the inhibition at 0.01 µM amounted to 37% and the inhibition at 0.1 µM worked out at 59%. Moreover, the inhibition at 1 µM in the assay on PC12 cells stood at 72%.

Turning to `CCC(CC)C(=O)N1CCN=C1N1CCCC1` [M059-0053, 2-ethyl-1-(2-(pyrrolidin-1-yl)-4,5-dihydro-1H-imidazol-1-yl)butan-1-one], the inhibition at 1 µM in the assay on PC12 cells worked out at 39%.

On to `O=C(CC1CCCC1)N1CCN=C1N1CCCC1` [M059-0055, 2-cyclopentyl-1-(2-(pyrrolidin-1-yl)-4,5-dihydro-1H-imidazol-1-yl)ethanone], for which the inhibition at 1 µM with PC12 cells was found to be 68%.

For `O=C(C1CCCC1)N1CCN=C1N1CCCC1` [M059-0082, cyclopentyl(2-(pyrrolidin-1-yl)-4,5-dihydro-1H-imidazol-1-yl)methanone], in the assay with PC12 cells, the “% protection at indicated concentration 0.1 nM” value is 33%, the “% protection at indicated concentration 1 nM” value came to 25%, the “% protection at indicated concentration 10 nM” value turned out to be 51% and the “% protection at indicated concentration 100 nM” value stood at 79%. In the assay on PC12 cells, the “% protection at indicated concentration 1 μM” value was 85%.

Take `O=C(c1ccccc1Br)N1CCN=C1N1CCCCC1` [M059-0193, (2-bromophenyl)-[2-(1-piperidyl)-4,5-dihydroimidazol-1-yl] methanone]: in the assay on PC12 cells, the “protection of cells at 10 μM” value was 10 μM confers protection 58% of cells.

Take `O=C(c1ccccc1F)N1CCN=C1N1CCCCC1` [M059-0216, (2-fluorophenyl)-[2-(1-piperidyl)-4,5-dihydroimidazol-1-yl] methanone]: in the assay on PC12 cells, the “protection of cells at 10 μM” value was 10 μM confers protection 71% of cells.

Turning to `O=C(c1ccccc1Cl)N1CCN=C1N1CCCCC1` [M059-0326, (2-chlorophenyl)-[2-(1-piperidyl)-4,5-dihydroimidazol-1-yl] methanone], in the assay with PC12 cells, the “protection of cells at 10 μM” value was 10 μM confers protection 56% of cells.

Consider `CCCC(=O)N1CCN=C1N1CCCCC1` [M059-0335, 1-(2-(piperidin-1-yl)-4,5-dihydro-1H-imidazol-1-yl)butan-1-one], for which, in the assay on PC12 cells, the inhibition at 1 µM came to 47%.

For the molecule `CCN1CCN(C2=NCCN2C(=O)C2CCCC2)CC1` [M059-1012, cyclopentyl(2-(4-ethylpiperazin-1-yl)-4,5-dihydro-1H-imidazol-1-yl)methanone], in the assay with PC12 cells, the inhibition at 0.1 µM worked out at 51%.

Consider `CC(C)N1CCN(C(=O)CN2C(=O)C3CCCN3C(=O)c3cc(F)ccc32)CC1` (stereo not shown) [M284-0488, 7-fluoro-10-(2-(4-isopropylpiperazin-1-yl)-2-oxoethyl)-2,3-dihydro-1H-benzo[e]pyrrolo[1,2-a][1,4]diazepine-5,11(10H,11aH)-dione], for which, in the assay on PC12 cells, the inhibition at 0.0001 µM turned out to be 35%, the inhibition at 0.001 µM worked out at 51%, the inhibition at 0.01 µM stood at 82% and the inhibition at 0.1 µM turned out to be 72%. Also, the inhibition at 1 µM with PC12 cells amounted to 80%.

On to `O=C(CN1C(=O)C2CCCN2C(=O)c2ccc(F)cc21)Nc1ccc(F)c(F)c1` (stereo not shown) [M284-0942, N-(3,4-difluorophenyl)-2-(8-fluoro-5,11-dioxo-2,3,11,11a-tetrahydro-1H-benzo[e]pyrrolo[1,2-a][1,4]diazepin-10(5H)-yl)acetamide], for which the inhibition at 0.1 µM with PC12 cells was 52%.

With `O=C1C(NS(=O)(=O)c2ccc(Cl)s2)CCN1c1ccccc1` (stereo not shown) [P316-0028, 5-chloro-N-(2-oxo-1-phenylpyrrolidin-3-yl)thiophene-2-sulfonamide], in the assay with PC12 cells, the inhibition at 0.01 µM turned out to be 43%, the inhibition at 0.1 µM was found to be 49% and the inhibition at 1 µM is 53%.

`O=C(O)c1nc2ncccn2n1` [R052-2664, [1,2,4]triazolo[1,5-a]pyrimidine-2-carboxylic acid]: in the assay on PC12 cells, the inhibition at 0.01 µM turned out to be 21%, the inhibition at 0.1 µM stood at 49% and the inhibition at 1 µM turned out to be 50%.

As for `O=C(N1CCN(c2nnc3ccc(Cl)cn23)CC1)C1(c2ccccc2)CC1` [T404-2346, (4-(6-chloro-[1,2,4]triazolo[4,3-a]pyridin-3-yl)piperazin-1-yl)(1-phenylcyclopropyl)methanone], the inhibition at 0.1 µM in the assay on PC12 cells came out at 42%.

For `CC(C)C(=O)Nc1ccc(Oc2ccc(NC(=O)C(C)C)cc2)cc1` [Y200-4083, N,N'-(oxybis(4,1-phenylene))bis(2-methylpropanamide)], in the assay with PC12 cells, the “% protection at indicated concentration 0.1 nM” value was 11%, the “% protection at indicated concentration 1 nM” value was 25%, the “% protection at indicated concentration 10 nM” value turned out to be 32% and the “% protection at indicated concentration 100 nM” value stood at 49%. In the assay with PC12 cells, the “% protection at indicated concentration 1 μM” value turned out to be 74%.

Consider `O=S1(=O)N=C(NCCN2CCCC2)C(NCCN2CCCC2)=N1` [Z087-0195, 3,4-bis((2-(pyrrolidin-1-yl)ethyl)amino)-1,2,5-thiadiazole 1,1-dioxide], for which, in the assay on PC12 cells, the inhibition at 0.0001 µM was 9%, the inhibition at 0.001 µM amounted to 21%, the inhibition at 0.01 µM worked out at 25% and the inhibition at 0.1 µM was determined as 80%. In addition, in the assay on PC12 cells, the inhibition at 1 µM is 98.5%.

Turning to `CCN1CCN(c2c(C)c(C)nc3ncnn23)CC1` [Z606-8336, 7-(4-ethylpiperazin-1-yl)-5,6-dimethyl-[1,2,4]triazolo[1,5-a]pyrimidine], in the assay with PC12 cells, the inhibition at 0.0001 µM turned out to be 29%, the inhibition at 0.001 µM is 35%, the inhibition at 0.01 µM was found to be 54% and the inhibition at 0.1 µM came out at 64%. Moreover, the inhibition at 1 µM in the assay with PC12 cells came to 75%.

On to `CC(C)c1cc(C2CCCN2C(=O)C2CC2)no1` (stereo not shown) [Z632-2266, cyclopropyl(2-(5-isopropylisoxazol-3-yl)pyrrolidin-1-yl)methanone], for which, in the assay on PC12 cells, the inhibition at 0.0001 µM was found to be 13%, the inhibition at 0.001 µM stood at 22%, the inhibition at 0.01 µM amounted to 46% and the inhibition at 0.1 µM is 78%. Besides, the inhibition at 1 µM in the assay on PC12 cells worked out at 93%.

Take `CNC(=O)c1n[nH]c2c1CCCCCC2` [Z632-6109, N-methyl-4,5,6,7,8,9-hexahydro-1H-cycloocta[c]pyrazole-3-carboxamide]: in the assay with PC12 cells, the inhibition at 0.0001 µM amounted to 26%, the inhibition at 0.001 µM was 25%, the inhibition at 0.01 µM is 40% and the inhibition at 0.1 µM amounted to 70%. Further, the inhibition at 1 µM in the assay on PC12 cells amounted to 81%.

`CC(C)C[C@H](NC(=O)N[C@H](C(=O)N[C@@H](CCC(N)=O)C(=O)N[C@@H](C)C=O)[C@@H]1CCNC(=N)N1)C(=O)O` [elastatinal, reference compound]: in the assay on PC12 cells (PC12, KCN 5 hours, FIGS. 6, 7A-B), the “KCN-induced necrotic cell death assessed by LDH release” value is given as “no protective effect”.
